Results published in ChEMBL document CHEMBL1201862, “PubChem BioAssay data set” (2004).
The source made the active and inactive calls.

Columns and labels:
[1] = target: T1, Sphingosine 1-phosphate receptor 2 (Homo sapiens, UniProt O95136); experiment: Dose Response Cell Based Assay for Agonists of the S1P2 Receptor. [Related pubchem assays: 729, 736, 843 ]; type: functional
[2] = IC50 of insulin release inhibition, rat insulinoma INS-1E line, 5 mM glucose, cell-based (AID 1117331); type: functional
[3] = Potency on glucagon-like peptide 1 release, dose-response in NCI-H716 cell line, half maximal inhibitory concentration (AID 1117344); type: functional, cell-based
[4] = glucagon-like peptide-1 release potency in STC-1, concentration-response, half-maximal inhibitory concentration in the STC-1 line (AID 1117345); type: functional, cell-based
[5] = fluconazole-exposed Candida albicans growth modulators – fluorescence, retest, confirmation (AID 2467); type: functional, cell-based
[6] = viability of PTEN-deleted HCT116 cells – cell-based, HCT116 PTEN knockout, dose response (AID 1047); type: functional;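 also: HCT116 colon tumor cells with PTEN knocked out; cells exposed to compound for 60 hours before readout; potency for loss of cell viability measured by luminescence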
BJ [7] = experiment: cells; type: functional, cell-based; conditions: Homo sapiens
BJ [8] = experiment: BJ-TERT fibroblast viability loss – cell-based, RAS-independent, luminescence, dose response (AID 1933); type: functional; conditions: Homo sapiens
[9] = tested on: Streptococcus sp. 'group A'; experiment: Streptococcus pyogenes SK(-)GAS viability under kanamycin – luminescence, BacTiterGlo, confirmation, counter-screen for streptokinase expression inhibitor project, dose response (AID 1900); type: functional, organism-based
[10] = target: T2, Rac GTPase-activating protein 1 (Homo sapiens, UniProt Q9H0H5); experiment: blockers of MgcRacGAP-driven Rac1 GTP hydrolysis – biochemical, ADP Hunter fluorescence, primary and confirmatory, confirmation (AID 624330); type: functional
T2 sequence (Q9H0H5 whole entry): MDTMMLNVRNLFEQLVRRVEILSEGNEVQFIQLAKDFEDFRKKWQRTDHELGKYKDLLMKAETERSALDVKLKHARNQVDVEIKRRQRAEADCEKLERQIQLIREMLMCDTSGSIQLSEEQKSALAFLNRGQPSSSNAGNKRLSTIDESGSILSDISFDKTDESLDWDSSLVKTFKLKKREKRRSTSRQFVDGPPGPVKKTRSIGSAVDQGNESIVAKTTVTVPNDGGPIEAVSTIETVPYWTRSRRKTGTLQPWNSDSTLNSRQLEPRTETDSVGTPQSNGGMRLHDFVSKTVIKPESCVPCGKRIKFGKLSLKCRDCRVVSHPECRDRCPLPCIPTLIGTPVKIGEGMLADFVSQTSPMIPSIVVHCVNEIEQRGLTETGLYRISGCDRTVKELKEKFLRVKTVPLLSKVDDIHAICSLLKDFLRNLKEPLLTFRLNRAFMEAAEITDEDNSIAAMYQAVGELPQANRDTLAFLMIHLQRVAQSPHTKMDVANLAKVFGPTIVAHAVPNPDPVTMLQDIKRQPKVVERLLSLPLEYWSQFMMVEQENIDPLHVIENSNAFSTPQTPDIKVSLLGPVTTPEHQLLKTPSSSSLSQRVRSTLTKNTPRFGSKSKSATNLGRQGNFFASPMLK

[11] = target: Eukaryotic translation initiation factor 4E (Mus musculus, UniProt P63073); experiment: blockers of eIF4G binding by eIF4E – biochemical, TR-FRET, dose response (AID 855); type: functional;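 also: potency for disrupting eIF4E binding to eIF4GI seen as loss of FRET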
Chain of Eukaryotic translation initiation factor 4E (P63073 whole entry): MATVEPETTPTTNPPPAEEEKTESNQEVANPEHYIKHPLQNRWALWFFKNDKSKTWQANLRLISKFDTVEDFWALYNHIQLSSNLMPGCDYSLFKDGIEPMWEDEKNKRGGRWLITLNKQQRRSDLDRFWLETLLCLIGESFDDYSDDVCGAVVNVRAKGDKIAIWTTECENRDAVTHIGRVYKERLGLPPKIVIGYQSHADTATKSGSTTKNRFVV

Streptococcus = experiment: GAS UMAA2166 growth inhibition – luminescence, BacTiterGlo, counter-screen for streptokinase expression inhibitor project, dose response (AID 1915); type: functional, organism-based;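 also: potency for reduction of bacterial viability or growth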
[12] = DRD fibroblast viability loss – cell-based, non-viral oncogenic, luminescence, dose response (AID 1934); type: functional; conditions: Homo sapiens
[13] = NIH-3T3 fibroblast cytotoxicity, dose response, cytotoxicity control, cell-based, fluorescence, Alamar Blue, secondary assay (AID 2327); type: functional;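 also: NIH-3T3 mouse fibroblasts cultured with fluconazole at 8 µg/mL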
BJ [14] = experiment: growth inhibition of engineered Ras-driven BJ cells – cell-based, alamar blue fluorescence, cherrypicked samples, dose response (AID 2631); type: functional; conditions: Homo sapiens;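 also: confirmatory dose-response assay in RAS-dependent BJ fibroblasts engineered with TERT, LT and ST, with cytotoxicity read by fluorescence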
Streptokinase A = target: T3, Streptokinase A (Streptococcus pyogenes serotype M1, UniProt P10520); experiment: viability-normalized secreted streptokinase activity reduction – plasminogen activation absorbance, OD405, dose response (AID 1914); type: functional, Streptococcus pyogenes M1 GAS;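 also: secreted streptokinase activity via plasminogen activation per viability signal from cell pellet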
T3 sequence (P10520 whole entry): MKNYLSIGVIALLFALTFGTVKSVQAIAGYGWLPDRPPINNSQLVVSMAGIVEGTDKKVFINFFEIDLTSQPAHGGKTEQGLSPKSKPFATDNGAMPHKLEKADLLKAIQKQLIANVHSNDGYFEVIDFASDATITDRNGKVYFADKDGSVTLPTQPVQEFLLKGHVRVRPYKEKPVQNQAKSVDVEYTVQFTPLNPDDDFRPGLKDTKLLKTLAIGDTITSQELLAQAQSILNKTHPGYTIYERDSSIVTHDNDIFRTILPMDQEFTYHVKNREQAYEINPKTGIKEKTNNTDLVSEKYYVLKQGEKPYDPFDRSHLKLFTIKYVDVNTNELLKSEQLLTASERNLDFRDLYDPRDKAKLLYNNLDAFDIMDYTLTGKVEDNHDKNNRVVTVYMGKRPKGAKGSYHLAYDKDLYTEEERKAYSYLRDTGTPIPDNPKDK

[15] = target: T1, Sphingosine 1-phosphate receptor 2; experiment: Dose Response Cell Based Assay for Antagonists of the S1P2 Receptor. [Related pubchem assays: 856, 736 ]; type: functional
[16] = HEK-293T viability loss after treatment – luminescence, T-cell screen hits, cytotoxicity control for TCR NF-kB inhibitor project, dose response (AID 489026); type: functional, cell-based;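 also: cells exposed to compound about 14 hours before the viability readout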
BJ [17] = experiment: BJ-TERT-LT-ST fibroblast viability loss – cell-based, RAS-independent, luminescence, dose response (AID 1935); type: functional; conditions: Homo sapiens;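 also: BJ fibroblasts immortalized with TERT plus LT and ST oncogenes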
[18] = viability loss in HeLa cells – cytotoxicity control for MgcRacGAP inhibitor project, dose response (AID 624300); type: functional
Nonstructural protein 1 = Nonstructural protein 1 (Influenza A virus, UniProt Q194T2); type: functional, Influenza A virus (A/California/07/2009(H1N1))
Chain of Nonstructural protein 1 (Q194T2 whole entry): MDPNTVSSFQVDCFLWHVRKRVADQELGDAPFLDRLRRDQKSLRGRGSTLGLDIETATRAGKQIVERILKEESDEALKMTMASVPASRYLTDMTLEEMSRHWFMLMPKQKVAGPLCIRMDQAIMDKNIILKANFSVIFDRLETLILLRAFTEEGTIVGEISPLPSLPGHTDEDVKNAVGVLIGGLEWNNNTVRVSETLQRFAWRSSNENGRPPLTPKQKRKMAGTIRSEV

[19] = viability of HCT116 lacking mutant beta-catenin – cell-based, human colon tumor, dose response (AID 1045); type: functional;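 also: HCT116 colon tumor cells with beta catenin knocked out; cells exposed to compound for 60 hours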
[20] = target: Protein-tyrosine kinase 2-beta (Homo sapiens, UniProt Q14289);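 also: potency of inhibitors of PYK2 kinase phosphorylation of poly-GT substrate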
Chain of Protein-tyrosine kinase 2-beta (Q14289 whole entry): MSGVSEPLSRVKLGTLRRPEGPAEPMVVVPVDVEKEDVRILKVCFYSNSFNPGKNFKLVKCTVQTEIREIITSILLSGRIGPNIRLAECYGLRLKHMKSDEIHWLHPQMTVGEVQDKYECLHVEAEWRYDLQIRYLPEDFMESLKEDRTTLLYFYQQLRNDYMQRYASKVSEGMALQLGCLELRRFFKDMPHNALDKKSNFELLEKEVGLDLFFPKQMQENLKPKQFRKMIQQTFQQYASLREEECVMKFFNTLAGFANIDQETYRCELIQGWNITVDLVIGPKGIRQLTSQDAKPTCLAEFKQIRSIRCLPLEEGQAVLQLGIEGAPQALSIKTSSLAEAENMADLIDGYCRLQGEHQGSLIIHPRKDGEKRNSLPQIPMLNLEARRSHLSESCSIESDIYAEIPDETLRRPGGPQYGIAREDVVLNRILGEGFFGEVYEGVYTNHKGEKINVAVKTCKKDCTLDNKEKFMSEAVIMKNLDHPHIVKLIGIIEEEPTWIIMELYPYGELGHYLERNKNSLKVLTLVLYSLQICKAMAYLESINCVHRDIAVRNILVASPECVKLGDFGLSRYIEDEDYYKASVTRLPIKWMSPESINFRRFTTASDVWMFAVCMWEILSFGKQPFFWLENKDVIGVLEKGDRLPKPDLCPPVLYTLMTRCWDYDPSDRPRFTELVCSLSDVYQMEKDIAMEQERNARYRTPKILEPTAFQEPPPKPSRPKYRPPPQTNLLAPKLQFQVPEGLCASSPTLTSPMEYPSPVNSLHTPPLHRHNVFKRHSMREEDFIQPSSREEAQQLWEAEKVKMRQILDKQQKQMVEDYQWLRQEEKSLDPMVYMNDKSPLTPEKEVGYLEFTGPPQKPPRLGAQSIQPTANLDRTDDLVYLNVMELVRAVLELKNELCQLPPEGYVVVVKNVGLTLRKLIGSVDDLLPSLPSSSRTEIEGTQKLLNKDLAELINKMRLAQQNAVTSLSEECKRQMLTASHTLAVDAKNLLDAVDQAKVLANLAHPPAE

INS1 = experiment: INS-1E survival protection against cytokine death – cell-based, luminescence, retest, dose response (AID 449756); type: functional; conditions: Rattus norvegicus;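 also: cell death triggered by IL-1 beta plus TNF-alpha plus IFN-gamma mixture; protective hits raise ATP signal compared with cytokine alone wells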
Genome polyprotein = Genome polyprotein (Hepatitis C virus, UniProt Q2Q167); experiment: disruption of hepatitis C core self-association – biochemical, TR-FRET, dose response (AID 2159); design: species or system Hepacivirus hominis;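 also: blocks dimerization of HCV core protein measured by TR-FRET between tagged core106 pairs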
Chain of Genome polyprotein (Q2Q167 whole entry): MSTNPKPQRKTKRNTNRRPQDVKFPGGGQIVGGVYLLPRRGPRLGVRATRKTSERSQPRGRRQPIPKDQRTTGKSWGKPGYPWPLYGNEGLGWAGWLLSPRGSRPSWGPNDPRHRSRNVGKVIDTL

Caspase-6 = target: T4, Caspase-6 (Homo sapiens, UniProt P55212); experiment: inhibition of CASP6 peptide cleavage – biochemical, VEID-R110 fluorescence, cherry-pick, dose response (AID 720632)
T4 sequence (P55212 whole entry): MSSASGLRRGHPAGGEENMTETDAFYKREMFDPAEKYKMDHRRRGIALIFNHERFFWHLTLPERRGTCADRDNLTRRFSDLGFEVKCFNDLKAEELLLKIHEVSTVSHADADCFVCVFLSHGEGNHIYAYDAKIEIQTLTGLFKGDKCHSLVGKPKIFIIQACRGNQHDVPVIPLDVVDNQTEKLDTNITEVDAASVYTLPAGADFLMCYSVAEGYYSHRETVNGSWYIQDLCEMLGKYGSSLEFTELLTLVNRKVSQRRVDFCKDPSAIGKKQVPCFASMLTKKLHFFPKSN

Bcl-2-related protein A1 [21] = target: T5, Bcl-2-related protein A1 (Mus musculus, UniProt Q07440); experiment: small-molecule antagonists of Bfl-1/BH3 interaction – biochemical, TR-FRET, mouse Bfl-1, confirmation (AID 621);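 also: TR-FRET binding of GST-Bfl-1 to FITC-labelled Bid peptide via terbium antibody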
T5 sequence (Q07440 whole entry): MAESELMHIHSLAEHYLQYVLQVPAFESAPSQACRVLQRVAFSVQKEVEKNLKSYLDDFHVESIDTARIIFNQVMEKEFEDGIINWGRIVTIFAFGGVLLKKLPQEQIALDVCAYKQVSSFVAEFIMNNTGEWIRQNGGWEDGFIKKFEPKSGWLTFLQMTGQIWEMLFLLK

Bcl-2-related protein A1 [22] = target: T5, Bcl-2-related protein A1; experiment: Bfl-1 binding inhibitors, SAR follow-up, biochemical, fluorescence polarization (AID 1070)
[23] = target: Glyceraldehyde-3-phosphate dehydrogenase (Homo sapiens, UniProt P04406)
Chain of Glyceraldehyde-3-phosphate dehydrogenase (P04406 whole entry): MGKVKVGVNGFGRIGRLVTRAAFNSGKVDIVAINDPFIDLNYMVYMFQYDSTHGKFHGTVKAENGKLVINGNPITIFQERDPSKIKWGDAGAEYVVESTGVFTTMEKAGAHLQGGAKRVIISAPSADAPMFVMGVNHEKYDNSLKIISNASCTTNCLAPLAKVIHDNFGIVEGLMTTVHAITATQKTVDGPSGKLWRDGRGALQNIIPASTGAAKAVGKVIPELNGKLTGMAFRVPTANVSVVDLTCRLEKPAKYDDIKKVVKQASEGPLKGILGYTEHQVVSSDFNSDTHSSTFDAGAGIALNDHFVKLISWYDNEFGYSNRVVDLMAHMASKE

[24] = target: Peroxisome proliferator-activated receptor gamma/Nuclear receptor corepressor 2 (Homo sapiens, UniProt P37231+Q9Y618); experiment: Counterscreen for NR2E3 inverse agonists: TR-FRET-based biochemical high throughput dose response assay to identify inverse agonists of the interaction between peroxisome proliferator-activated receptor gamma (PPARg) and nuclear receptor co-repressor 2 (NCOR2).; type: functional
[25] = target: Photoreceptor-specific nuclear receptor (Homo sapiens, UniProt Q9Y5X4); experiment: ligands suppressing NR2E3 nuclear receptor activity – biochemical, TR-FRET, dose response (AID 463256); type: functional
Chain of Photoreceptor-specific nuclear receptor (Q9Y5X4 whole entry): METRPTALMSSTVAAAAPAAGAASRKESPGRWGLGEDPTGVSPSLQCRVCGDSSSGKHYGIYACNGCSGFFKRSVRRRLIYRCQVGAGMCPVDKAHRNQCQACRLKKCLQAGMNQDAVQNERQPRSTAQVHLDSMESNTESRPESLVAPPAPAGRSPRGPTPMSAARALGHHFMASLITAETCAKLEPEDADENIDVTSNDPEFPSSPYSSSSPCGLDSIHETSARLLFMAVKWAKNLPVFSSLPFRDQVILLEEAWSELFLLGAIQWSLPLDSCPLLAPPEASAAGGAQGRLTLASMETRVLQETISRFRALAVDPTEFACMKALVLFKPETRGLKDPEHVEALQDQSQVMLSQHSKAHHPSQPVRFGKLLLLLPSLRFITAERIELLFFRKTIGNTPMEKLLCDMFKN

T1 sequence (O95136 whole entry): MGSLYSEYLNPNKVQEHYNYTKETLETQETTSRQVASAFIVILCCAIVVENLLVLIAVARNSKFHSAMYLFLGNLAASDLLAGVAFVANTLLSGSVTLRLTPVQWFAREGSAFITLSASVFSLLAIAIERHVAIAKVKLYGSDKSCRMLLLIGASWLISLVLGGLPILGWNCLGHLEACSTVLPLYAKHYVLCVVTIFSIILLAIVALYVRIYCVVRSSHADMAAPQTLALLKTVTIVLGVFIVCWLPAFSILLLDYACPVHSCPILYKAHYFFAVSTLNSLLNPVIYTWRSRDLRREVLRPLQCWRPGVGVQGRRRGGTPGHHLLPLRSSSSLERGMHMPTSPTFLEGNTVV

CS(=O)(=O)NCc1nnc(SCC(=O)NC2CCCCC2)n1-c1ccc(F)cc1
EC50 [1]: > 50 µM (not active)

Cc1ccc(O)cc1 [p-CRESOL]
IC50 [2]: > 33.3 µM (inactive) | IC50 [3]: > 40 µM (inactive) | IC50 [4]: > 40 µM (inactive)

COC(=O)C(Cl)C(=O)OC
IC50 [2]: > 33.3 µM (inactive) | IC50 [3]: > 40 µM (inactive) | IC50 [4]: 8.37 µM (inactive)

CCN1/C(=C/c2ccc3ccccc3[n+]2CC)C=Cc2ccccc21
EC50 [5]: 0.639 µM (active) | EC50 [6]: 0.249 µM (active) | EC50 (BJ [7]): 2.73 µM (active) | EC50 (BJ [8]): 1.21 µM (active) | EC50 [9]: 4.74 µM (active) | IC50 [10]: 46.5 µM (active) | IC50 [11]: 33.8 µM (inactive) | EC50 (Streptococcus): 35 µM (active) | EC50 [12]: 3.27 µM (active) | EC50 [13]: 12 µM (active) | EC50 (BJ [14]): 1.89 µM (active) | EC50 (Streptokinase A): > 150 µM (not active) | IC50 [15]: 3.1 µM (active) | IC50 [16]: 33.1 µM (inactive) | EC50 (BJ [17]): 3.1 µM (inconclusive) | CC50 [18]: 19 µM (active) | IC50 (Nonstructural protein 1): 12.8 µM (active) | EC50 [19]: 0.167 µM (active)

O=C(N/N=C1/C(=O)c2cccc3cccc1c23)c1ccc(Cl)cc1
IC50 [20]: 4.31 µM (active)

CC1=NN(c2ccc(C)c(C)c2)C(=O)/C1=C\C=C\c1ccc([N+](=O)[O-])o1
AC50 (INS1): 4.08 µM (active) | IC50 (Genome polyprotein): > 49.8 µM (not active) | AC50 (Caspase-6): 1.79 µM (active)

O=C1C(Cl)=C(Cl)C(=O)N1c1ccnc(Cl)c1
IC50 (Bcl-2-related protein A1 [21]): 39.9 µM (active) | IC50 (Bcl-2-related protein A1 [22]): > 100 µM (not active) | IC50 [23]: > 100 µM (not active)

COc1ccc2[nH]c(C(=O)Nc3ccc(F)cc3Br)cc2c1
IC50 [24]: > 39.9 µM (not active) | IC50 [25]: > 39.9 µM (not active)
